Legend:
Format in all cases: in vivo
Conditions in all cases: intraperitoneal, at time of maximum effect, 50% of muscle relaxation activity vs vehicle only (100%)
[1] = tested on: male mice (ICR); assay: Muscle relaxation activity by residence time on a rotarod rotating at a fixed speed (15 r.p.m.)
Procedure: (§1) For testing, male mice (ICR) were purchased from ORIENT BIO INC. (Korea), divided into several groups with 6 mice in each group, and were adapted for 4-5 days. The mice having the weight ranging from 19 g to 26 g were employed for the test. The pharmacological effect of the test compounds on muscle relaxation was evaluated by Rotarod test, grip strength test, and muscular force (wire hang) test. All mice were adapted to the test environment at one hour before starting the tests. The pharmacological effects of all the test compounds were evaluated by administration through peritoneal cavity of the mice (10 ul/g, bw).
All the mice to be tested were preliminarily trained for 5 minutes on a rod rotating at the rate of 15 revolutions per a minute. The mice that could not remain on the rod without falling off therefrom for a minimum of 2 minutes were excluded from this testing. After the training, all the mice were allowed to rest for 45-60 minutes. Before the administration of the test compounds, the mice were subjected to a further training for one minute on the rod rotating under the same condition, where the mice falling off from the rod were excluded from this experimentation. […] In case a mouse stays on the rod until the test is finished, the time was recorded as 10 minutes. As test time for evaluation, a maximum of 10 minutes was applied. This experimentation was conducted according to the method described in the reference, ‘Yasuda et al. (2005) Antipyretic, analgesic and muscle relaxant activities of Pueraria isoflavonoids and their metabolites from Pueraria lobata Ohwi—a traditional Chinese drug. Biol. Pharm. Bull. 28: 1224-1228’.
(§2) The results of muscle relaxation activity of the phenyl alkyl carbamate derivative compounds measured in above Experimental Examples 1 to 3 are shown in following Table 3.

[2] = tested on: male mice (ICR); assay: Muscle relaxation activity by grip strength (forelimbs)
Procedure: as §1
A grip strength test using the test animals' forelimbs was performed using an instrument equipped with triangle ring and designed so as to easily grip with the forelimbs of experimental animals, manufactured from Ugo Basile Inc. (Ugo Basile, Model 47106, Italy). The test was conducted before and after administration of the compounds to evaluate the effects thereof. […] The mouse was made to grip the rod with its forelimbs, and its tail was pulled, where the force at which the mouse detached from the rod was recorded. The instrument indicated the force in grams. All of the mice were given 3 opportunities for test, and the 3 highest values among the test opportunities were selected and the mean value was used as the test result. This experimentation was conducted according to the method described in the reference, ‘Nevins et al. (1993) Quantitative grip strength assessment as a means of evaluating muscle relaxation in mice. Psychopharmacol. 110: 92-96’.
as §2

[3] = tested on: male mice (ICR); assay: Muscle relaxation activity by wire hang
Procedure: as §1
This experimentation was conducted using a metal wire of 30 cm in length, which was suspended between two pillars at a height of about 40 cm from the bottom covered with a soft pad. […] Each mouse was made to grip the wire using two forelimbs, and the elapse time before the mouse fell off from the wire to the pad on the bottom was recorded in seconds. Each mouse was given 5 opportunities for this test at an interval of 2 minutes period. The highest 3 records among the test opportunities were selected and the mean value was used as the test result. This experimentation was conducted according to the method described in the reference, ‘Jacqueline N. Crawley (1999) Behavioral phenotyping of transgenic and knockout mice: experimental design and evaluation of general health, sensory functions, motor abilities, and specific behavioral tests. Brain Res. 835: 18-26’.
as §2

SMILES | MR test (ED50) I = Fixed 15 r.p.m. Rotarod [1] | MR test (ED50) II = Grip strength [2] | MR test (ED50) III = Wire hang [3]
COCO[C@@H](c1ccccc1Cl)[C@H](C)OC(N)=O [Example 1, 1-(2-chlorophenyl)-(S)-1-methoxymethoxypropyl-(S)-2-carbamate] | 55.0 mg/kg, bw | 115.2 mg/kg, bw | 37.0 mg/kg, bw
COCO[C@H](c1ccccc1I)[C@@H](C)OC(N)=O [Example 91, 1-(2-iodophenyl)-(R)-1-methoxymethoxypropyl-(R)-2-carbamate] | 30.1 mg/kg, bw |  | 24.4 mg/kg, bw
CO[C@@H](c1ccccc1Cl)[C@H](C)OC(N)=O [Example 124, 1-(2-chlorophenyl)-(S)-1-methoxypropyl-(S)-2-carbamate] | 35.9 mg/kg, bw | 66.4 mg/kg, bw | 34.8 mg/kg, bw
CO[C@@H](c1ccccc1F)[C@H](C)OC(N)=O [Example 135, 1-(2-fluorophenyl)-(S)-1-methoxypropyl-(S)-2-carbamate] | 60.0 mg/kg, bw | 145.6 mg/kg, bw | 26.2 mg/kg, bw
CO[C@@H](c1ccccc1I)[C@H](C)OC(N)=O [Example 143, 1-(2-iodophenyl)-(S)-1-methoxypropyl-(S)-2-carbamate] | 13.0 mg/kg, bw | 61.0 mg/kg, bw | 33.5 mg/kg, bw
C[C@H](OC(N)=O)[C@@H](OC(N)=O)c1ccccc1Cl [Example 247, 1-(2-chlorophenyl)-(S)-1-carbamoyloxypropyl-(S)-2-carbamate] |  | 264.3 mg/kg, bw | 
C[C@@H](OC(N)=O)[C@H](OC(N)=O)c1ccccc1Cl [Example 250, 1-(2-chlorophenyl)-(R)-2-carbamoyloxypropyl-(R)-1-carbamate] |  | 225.6 mg/kg, bw | 

Reference: US9029589B2, “Phenyl alkyl carbamate derivative compound and pharmaceutical composition containing the same” (Bio-Pharm Solutions Co., Ltd., priority 2011, dated 2015)
